Experimental data from US9327060B2 (CARDINAL HEALTH SWITZERLAND 515 GmbH, priority 2009, dated 2016).

Assays:
[1] = porcine drug elution PK study of the dual drug eluting coating; format: in vivo; conditions: after eight (8) days of implantation; stent of FIG. 11 (sirolimus and cilostazol in one EVA/BMA layer, 100 μg BMA overcoat)
From the text: Another critical parameter for the performance of the thrombus resistance of a device coated with cilostazol is the duration of the drug release from the coating. This is of particular significance in the two weeks after device implantation. In the porcine drug elution PK studies of the dual drug eluting coating, both cilostazol and sirolimus were slowly released from the coating, resulting in a sustained drug release profile. The purpose of the porcine PK study is to assess the local pharmacokinetics of a drug eluting stent at a given implantation time. Normally three stents are implanted in three different coronary arteries in a pig for a given time point and then retrieved for total drug recovery analysis. The stents are retrieved at predetermined time points; namely, 1, 3 and 8 days. The stents are extracted and the total amount of drug remaining on the stents is determined by analysis utilizing HPLC (high performance liquid chromatography) for total drug amount. The difference between the original amount of drug on the stent and the amount of drug retrieved at a given time represents the amount of drug released in that period. The continuous release of drug into surrounding arterial tissue is what prevents the neointimal growth and restenosis in the coronary artery. A normal plot represents the percentage of total drug released (%, y-axis) vs. time of implantation (day, x-axis). […]

[2] = From the text: Referring to FIG. 29, there is illustrated the cumulative in vivo drug release percentages from a reservoir eluting stent for each drug over a thirty day period. Curve 2902 represents the profile for cilostazol while curve 2904 represents the profile for sirolimus. FIG. 30 is a graphical representation of the amount of each drug, in micrograms, released in vivo. Curve 3002 represents the profile for cilostazol while curve 3004 represents the profile for sirolimus. The curves in the figures illustrate that both the drugs elute independently of each other with minimal or substantially no interaction. […] Since the amount of drug (by weight) is different for the drugs in their respective reservoirs, the total amount of drug released at thirty (30) days was higher for sirolimus as compared to cilostazol.
[3] = test system: platelet deposition and thrombus formation on the stent surface; experiment: in vitro bovine blood loop model; conditions: sirolimus/cilostazol combination coatings, FIG. 8
From the text: The anti-thrombotic efficacy of the above-described three configurations is illustrated in FIG. 8. FIG. 8 illustrates the anti-thrombotic properties of the sirolimus/cilostazol combination coatings described above in an in vitro bovine blood loop model. In the in vitro bovine blood loop model, fresh bovine blood is heparinized to adjust for […] (ACT) of about two hundred (200) seconds. The platelet content in the blood is labeled through the use of Indium 111. In the study, a stent is deployed in a silicone tube, which is part of a closed loop system for blood circulation. The heparinzed blood is circulated through the closed loop system by means of a circulating pump. Blood clots and thrombus builds up on a stent surface over time and reduces the flow rate of blood through the stented loop. The flow is stopped when the flow rate is reduced to fifty (50) percent of the starting value or at ninety (90) minutes if none of the tested stent reduces the flow by fifty (50) percent. The total radioactivity (In 111) on the stent surface is counted by a […] and normalized with the control unit, set as one hundred (100) percent in the chart. […]

[4] = in vitro release kinetics of sirolimus and cilostazol from coated stent; format: physicochemical; conditions: stent of FIG. 11 (sirolimus and cilostazol in one EVA/BMA layer, 100 μg BMA overcoat); FIG. 10

| SMILES | drug remained in the drug coating [1] [%] | cumulative in vivo elution [2] | thrombus formation [3] | in vitro release [4] [%] |
| --- | --- | --- | --- | --- |
| CO[C@H]1C[C@@H]2CC[C@@H](C)[C@@](O)(O2)C(=O)C(=O)N2CCCC[C@H]2C(=O)O[C@H]([C@H](C)C[C@@H]2CC[C@@H](O)[C@H](OC)C2)CC(=O)[C@H](C)/C=C(\C)[C@@H](O)[C@@H](OC)C(=O)[C@H](C)C[C@H](C)/C=C/C=C/C=C/1C [Rapamycin] | ~80 | sixty (60) to seventy (70) | – | – |
| O=C1CCc2cc(OCCCCc3nnnn3C3CCCCC3)ccc2N1 [cilostazol, 6[4-(1-cyclohexyl-1H-tetrazol-5-yl)-butoxy]-3,4-dihydro-2-(1H)-quinolinone] | ~80 | sixty (60) to seventy (70) | significantly reduces thrombus formation | ~35 |
